Laboratory results from PMC7589992 (Pharmaceutics, 2020).
Read-outs that look alike come from different tables or passages of the source.

Tests used:
[1] = no reference given; cited from earlier work
[2] = Visual inspection of samples at the concentrations applied in vivo; format: physicochemical; conditions: PTH(1-34) mixed with penetratin
Caco-2 cell monolayers [3] = assay: In vitro transepithelial permeation across Caco-2 cell monolayers; format: in vitro ADME, human; conditions: Caco-2, apical to basolateral, 3 h, 37 °C, ELISA/EIA, N = 3, n = 3; for effect on permeation of lowering the sample pH from 6.5 or 7.4 to pH 5, without penetratin (in words): 5 µM peptide alone
Method: At 80% confluency the cells were sub-cultured by detaching them from the culture flasks by trypsin-EDTA treatment. […] Caco-2 cell monolayers were washed twice apical and basolateral with 37 °C hHBSS. The cells were equilibrated to room temperature in the last washing volume before TEER was measured using an EVOM equipped with an Endohm-12 cup (World Precision Instruments, Sarasota, FL, USA) and equilibration to 37 °C. […] The permeation study was initiated by careful transfer of the filter inserts to fresh 12-well plates containing 1 mL 37 °C hHBSS. The experiment was performed on a 37 °C shaking table (50 rpm). 100 µL test samples were withdrawn from the basolateral compartment at time-points 0, 60, 120 and 180 min and stored at −20 °C. The sample volume was immediately replaced with 37 °C hHBSS.

[4] = In vitro stability during apical incubation on Caco-2 cell monolayers; format: in vitro ADME, human; conditions: human, peptide alone, 5 µM, 37 °C, RP-HPLC, N = 3, mean ± SD, read-out: intact peptide remaining after 4 h, % of initial concentration
Method: (§1) At 80% confluency the cells were sub-cultured by detaching them from the culture flasks by trypsin-EDTA treatment. […] [17]. Briefly, The Caco-2 cell monolayers were washed twice apical and basolateral with 37 °C hHBSS and equilibrated to room temperature in the last washing volume. The transepithelial electrical resistance (TEER) was measured using an EVOM equipped with an Endohm-12 cup (World Precision Instruments, Sarasota, FL, USA) to validate the barrier integrity of the monolayer. Following equilibration to 37 °C the filter inserts were transferred to empty 6-well plates in order to block permeation across the monolayer. […] The kinetics of the metabolic degradation was evaluated by analytical RP-HPLC as described under the ultracentrifugation procedure.

Caco-2 cell monolayers [5] = assay: as above; format: in vitro ADME, human; conditions: 37 °C, RP-HPLC; for peptide remaining after 4 h in physical mixture with penetratin, % of initially applied: 5 µM peptide + 20 µM penetratin, N = 3, mean ± SD
Method: as §1

[6] = In situ rat intestinal injection: plasma insulin or PTH(1-34); format: in vivo; conditions: intraintestinal
Method: 100 μL test samples were withdrawn from the basolateral compartment at time-points 0, 60, 120 and 180 min and stored at -20 °C. The sample volume was immediately replaced with 37 °C hHBSS. […] Male Sprague Dawley rats (Taconic, Ejby, Denmark) weighing ~250 g were allowed to acclimatize for at least 8 days at 20-22 °C and 45-65% humidity with free access to water and food. The rats were fasted for 18 h prior to surgery. Hypnorm (fentanyl 0.315 mg/mL and fluanisone 10 mg/mL) (Glostrup apotek, Glostrup, Denmark) and Dormicum (midazolam 5 mg/mL) (Nomeco, Copenhagen, Denmark) were mixed 1:1 (v/v) with ultrapure water and used for anesthesia. The initial dose was 2 mL/kg and subsequent doses of 1 mL/kg were given every 20 min within the first hour and thereafter every 40 min to keep the animals anaesthetized. All doses of anesthetics were administered subcutaneously in the neck region. The abdominal wall was cut open and the small intestine localized. A 10 cm PE-50 catheter (Smiths Medical, Keene, NH, USA) was inserted into the middle of the intestine and secured with a 3/0 suture (Braun, Tuttlingen, Germany). Care was taken not to interrupt the mesenteric blood flow. The intestine was hydrated with 1-2 mL isotonic sodium chloride solution before the rat abdominal wall was closed with 9 mm clips using the AutoClip Wound Closure System (Alzet, Cupertino, CA, USA). […] The blood samples were placed on ice prior isolation of the plasma by centrifugation at 2000× g at 4 °C for 10 min (Eppendorf centrifuge 5424, Eppendorf, Hamburg, Germany). Blood glucose was measured at time points of 15, 30, 45, 60, 90, and 120 min after dosing using an On-Call blood glucose meter (Acon, San Diego, CA, USA). After the final blood sampling, the animals were euthanized while still under anesthesia using 90% CO2 in O2 [19]. The abdominal wall of the rats was reopened after the experiment to ensure the catheter was still in place. Likewise, control of potential damage to the intestine was determined macroscopically. The experiments were conducted in strict compliance with the national animal research license 2009/561-1622.

[7] = ThT binding to supramolecular complexes, plate reader fluorescence; format: physicochemical; conditions: all pH-values tested (5, 6.5, 7.4); 50 µM insulin or PTH(1-34) or 200 µM penetratin alone, 100 µM ThT; N = 3
Male Sprague Dawley rats = assay: In situ rat intestinal injection: blood glucose; format: in vivo; conditions: intraintestinal
Method: Male Sprague Dawley rats (Taconic, Ejby, Denmark) weighing ~250 g were allowed to acclimatize for at least 8 days at 20–22 °C and 45–65% humidity with free access to water and food. The rats were fasted for 18 h prior to surgery. Hypnorm (fentanyl 0.315 mg/mL and fluanisone 10 mg/mL) (Glostrup apotek, Glostrup, Denmark) and Dormicum (midazolam 5 mg/mL) (Nomeco, Copenhagen, Denmark) were mixed 1:1 (v/v) with ultrapure water and used for anesthesia. The initial dose was 2 mL/kg and subsequent doses of 1 mL/kg were given every 20 min within the first hour and thereafter every 40 min to keep the animals anaesthetized. All doses of anesthetics were administered subcutaneously in the neck region. The abdominal wall was cut open and the small intestine localized. A 10 cm PE-50 catheter (Smiths Medical, Keene, NH, USA) was inserted into the middle of the intestine and secured with a 3/0 suture (Braun, Tuttlingen, Germany). Care was taken not to interrupt the mesenteric blood flow. The intestine was hydrated with 1–2 mL isotonic sodium chloride solution before the rat abdominal wall was closed with 9 mm clips using the AutoClip Wound Closure System (Alzet, Cupertino, CA, USA). The animal was left on a 37 °C heating plate (Scandidact, Kvistgaard, Denmark) for 30 min prior dosing of the test samples to allow normalization of the potentially elevated blood glucose level resulting from stress induced by handling and surgery. […] A volume of 200 µL air was injected immediately after dosing to fully empty the catheter into the intestinal lumen. 200 µL blood samples were collected from the tail vein at time points 0, 5, 15, 30, 45, 60, 90, and 120 min into EDTA-coated microcuvette vials (Sarstedt, Nümbrecht, Germany). The blood samples were placed on ice prior isolation of the plasma by centrifugation at 2000× g at 4 °C for 10 min (Eppendorf centrifuge 5424, Eppendorf, Hamburg, Germany). Blood glucose was measured at time points of 15, 30, 45, 60, 90, and 120 min after dosing using an On-Call blood glucose meter (Acon, San Diego, CA, USA). After the final blood sampling, the animals were euthanized while still under anesthesia using 90% CO2 in O2 [19]. The abdominal wall of the rats was reopened after the experiment to ensure the catheter was still in place. Likewise, control of potential damage to the intestine was determined macroscopically. The experiments were conducted in strict compliance with the national animal research license 2009/561-1622.

[8] = Size distribution by dynamic light scattering; format: physicochemical; conditions: DLS, mHBSS pH 5, 25 °C, 180 µM insulin or PTH(1-34), alone or mixed with 720 µM penetratin, N = 3, mean ± SD
Method: Size distributions according to the distribution by volume were determined using a Zetasizer Nano ZSP (Malvern Instruments, Worcestershire, UK) equipped with a 633 nm laser at 25 °C with 10–20 runs of 10 s and N = 3.

[9] = apical pH 5, 5 µM peptide + 20 µM penetratin
[10] = apical pH 6.5 and 7.4, 5 µM peptide + 20 µM penetratin
[11] = pH 5, apical incubation on Caco-2 monolayers
[12] = pH 6.5, apical incubation on Caco-2 monolayers
[13] = pH 7.4, apical incubation on Caco-2 monolayers
[14] = insulin (50 IU/kg) alone or 720 µM penetratin alone, pH 5, N = 6, mean ± SD

Molecule | pI [1] | effect on permeation of lowering the sample pH from 6.5 or 7.4 to pH 5, without penetratin (in words) (Caco-2 cell monolayers [3]) | penetratin-mediated transepithelial permeation / Papp (in words) (Caco-2 cell monolayers [3]; [9]) | penetratin-mediated transepithelial permeation / Papp (in words) (Caco-2 cell monolayers [3]; [10]) | peptide remaining after 4 h in physical mixture with penetratin, % of initially applied (Caco-2 cell monolayers [5]; [11]) [%] | peptide remaining after 4 h in physical mixture with penetratin, % of initially applied (Caco-2 cell monolayers [5]; [13]) | ThT fluorescence above background, peptide alone (in words) [7] | blood glucose level, % of initial value (Male Sprague Dawley rats; [14]) | also measured
CC[C@H](C)[C@H](NC(=O)[C@H](CCC(=O)O)NC(=O)[C@H](CO)NC(=O)[C@@H](NC(=O)[C@@H](N)CO)C(C)C)C(=O)N[C@@H](CCC(N)=O)C(=O)N[C@@H](CC(C)C)C(=O)N[C@@H](CCSC)C(=O)N[C@@H](Cc1cnc[nH]1)C(=O)N[C@@H](CC(N)=O)C(=O)N[C@@H](CC(C)C)C(=O)NCC(=O)N[C@@H](CCCCN)C(=O)N[C@@H](Cc1cnc[nH]1)C(=O)N[C@@H](CC(C)C)C(=O)N[C@@H](CC(N)=O)C(=O)N[C@@H](CO)C(=O)N[C@@H](CCSC)C(=O)N[C@@H](CCC(=O)O)C(=O)N[C@@H](CCCN=C(N)N)C(=O)N[C@H](C(=O)N[C@@H](CCC(=O)O)C(=O)N[C@@H](Cc1c[nH]c2ccccc12)C(=O)N[C@@H](CC(C)C)C(=O)N[C@@H](CCCN=C(N)N)C(=O)N[C@@H](CCCCN)C(=O)N[C@@H](CCCCN)C(=O)N[C@@H](CC(C)C)C(=O)N[C@@H](CCC(N)=O)C(=O)N[C@@H](CC(=O)O)C(=O)N[C@H](C(=O)N[C@@H](Cc1cnc[nH]1)C(=O)N[C@@H](CC(N)=O)C(=O)N[C@@H](Cc1ccccc1)C(=O)O)C(C)C)C(C)C [PTH(1-34)] | 8.3 | did not increase | increase | no significant increase | 72.4 ± 3.0 | 69.9 ± 2.7% | no pronounced increase |  | visible precipitation on mixing with penetratin (in words) [2]: not evident; remaining at 4 h, 5 µM [4, 11]: 66.6 ± 8.5%; remaining at 4 h, 5 µM [4, 12]: 71.7 ± 7.1%; remaining at 4 h, 5 µM [4, 13]: 73.6 ± 9.1%; peptide remaining after 4 h in physical mixture with penetratin, % of initially applied (Caco-2 cell monolayers [5]; [12]): 67.0 ± 2.6%; pH-dependent trend of penetratin-mediated delivery, Cmax of plasma PTH(1-34) and AUC ([6]; PTH(1-34) 1.2 mg/kg + penetratin 1:4, N = 6): pH 5 > pH 6.5 > pH 7.4
insulin: Human recombinant insulin (5807.6 g/mol, Zn-free) provided by Sanofi |  | did not increase | increase | no significant increase | 89.9 ± 11.2 | remained stable | increase | 86.9 ± 6.0% | stability during incubation for 4 h (in words) (Caco-2 cell monolayers [5]; 5 µM insulin alone, pH 5, 6.5, or 7.4, apical incubation on Caco-2 monolayers, N = 3): remained stable; blood glucose level, % of initial value (Male Sprague Dawley rats; insulin 50 IU/kg in physical mixture with 720 µM penetratin (1:4), pH 5, 60 min time-point, N = 6, mean ± SD): 38.5 ± 23.8%; blood glucose level, % of initial value (Male Sprague Dawley rats; insulin 50 IU/kg in physical mixture with 720 µM penetratin (1:4), pH 6.5, after 60 min, N = 6, mean ± SD): 71.1 ± 17.8%; blood glucose level, % of initial value (Male Sprague Dawley rats; insulin 50 IU/kg in physical mixture with 720 µM penetratin (1:4), pH 7.4, after 60 min, N = 6, mean ± SD): 83.3 ± 21.2%; blood glucose level, % of initial value (Male Sprague Dawley rats; insulin (50 IU/kg) alone, pH 6.5, N = 6, mean ± SD): 88.9 ± 11.1%; blood glucose level (in words) (Male Sprague Dawley rats; insulin (50 IU/kg) alone, pH 7.4, N = 6): did not affect; plasma insulin concentration and AUC on co-administration with penetratin (in words) ([6]; insulin 50 IU/kg + penetratin 1:4, pH 5, compared to pH 6.5 and 7.4, N = 6): greatest effect; plasma insulin concentration and AUC on co-administration with penetratin (in words) ([6]; insulin 50 IU/kg + penetratin 1:4, pH 6.5, N = 6): slight increase; plasma insulin concentration and AUC on co-administration with penetratin (in words) ([6]; insulin 50 IU/kg + penetratin 1:4, pH 7.4, N = 6): did not differ from administration of insulin alone; volume mean size [8]: 1579 ± 319 nm
RQIKIWFQNRRMKWKK [penetratin] | 12.3 |  |  |  |  |  | no pronounced increase | did not affect | 
